Measured values from PubChem BioAssay (NCI).
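96-well plates; 48 h exposure; 5 concentrations. Endpoints by linear interpolation between flanking doses. Not reached: highest tested concentration assigned. The concentration for 50% growth inhibition is given as GI50. Definition used: TGI = concentration required for complete inhibition of growth.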 *1 amine or outer side, *2 acyl side, *3 side chain or, on linkers, in order; H or OH if unused. Where a SMILES comes first, the peptide text is derived from it. [ ]: non-standard residue; d: D form. X33 = C=CCC(O[*:1])C(=O)[*:2]; NMeV = CN[CH](C(=O)O)C(C)C; NMeA = CN[CH](C)C(=O)O; βAla = NCCC(=O)O

Columns and labels:
Assay in all cases: NCI tumour cell line growth inhibition, 48 h
IGROV1 ovarian = test system: IGROV1 ovarian
HL-60(TB) leukemia = test system: HL-60(TB) leukemia
HOP-92 NSCLC = test system: HOP-92 NSCLC
SK-OV-3 ovarian = test system: SK-OV-3 ovarian
UACC-257 melanoma = test system: UACC-257 melanoma
NCI/ADR-RES ovarian = test system: NCI/ADR-RES ovarian
A549 NSCLC = test system: A549 NSCLC
RPMI-8226 leukemia = test system: RPMI-8226 leukemia
DU-145 prostate = test system: DU-145 prostate
PC-3 prostate = test system: PC-3 prostate

SMILES	TGI (IGROV1 ovarian) [µM]	TGI (HL-60(TB) leukemia) [µM]	TGI (HOP-92 NSCLC) [µM]	TGI (SK-OV-3 ovarian) [µM]	TGI (UACC-257 melanoma) [µM]	TGI (NCI/ADR-RES ovarian) [µM]	TGI (A549 NSCLC) [µM]	TGI (RPMI-8226 leukemia) [µM]	TGI (DU-145 prostate) [µM]	TGI (PC-3 prostate) [µM]	GI50 (PC-3 prostate) [µM]	GI50 (IGROV1 ovarian) [µM]	GI50 (HL-60(TB) leukemia) [µM]	GI50 (HOP-92 NSCLC) [µM]	GI50 (SK-OV-3 ovarian) [µM]	GI50 (UACC-257 melanoma) [µM]	GI50 (NCI/ADR-RES ovarian) [µM]	GI50 (A549 NSCLC) [µM]	GI50 (RPMI-8226 leukemia) [µM]
O=C(NN1C(=O)CSC1c1ccc(C(F)(F)F)cc1)c1ccncc1 (stereo not given)	> 100	> 100	> 100	> 100	> 100	> 100	> 100	> 100											
C/C(=N\NC(=S)Nc1ccc(C)cc1)c1nc2ncccc2[nH]1	17.3		24.1	58.3	9.48	> 100	44.7	> 100	13.6	32.5									
COc1ccc(-c2c3c(nc4nc(SC)nc(SC)c24)CCCC3)cc1OC	> 100	51.4	> 100	> 100	> 100		> 100	> 100	> 100	> 100									
Nc1nc(N)c2[nH]cnc2n1 (tested in a mixture with another compound)	> 100	> 100	> 100	> 100	55.2	> 100	47.4	> 100	> 100	94.6									
NC(=S)N/N=C1\c2ccccc2CCC1CCC1(O)CCc2ccccc2C1=O (stereo not given)	> 100	20.6		> 100	33.3	79.1	> 100	70.4	> 100	88.7									
CCc1nnc(-c2nsc3ccccc23)s1	> 100	> 100	> 100		> 100		> 100	> 100											
COc1cc2c(cc1OC)C(C)N(C)c1c-2c(OC(C)=O)cc2cc(OC)c(OC)cc12 (stereo not given)				> 100	24.2	33.2	> 69.2	> 59	40.8	> 90.8									
O=S(=O)(O)c1ccc2c(N=Nc3ccc(F)cc3)c(O)c(S(=O)(=O)O)cc2c1	> 100		> 100	> 100	> 100	> 100	> 100	> 100	> 100	> 100									
C=CCC1OC(=O)CCNC(=O)C(C)N(C)C(=O)C(C(C)C)N(C)C(=O)C(C(C)CC)NC(=O)C2CCCN2C1=O (stereo not given) (cyclo([X33]PI[NMeV][NMeA][βAla]); configuration not given here)	> 100	8.47	> 100		71.6	> 100	> 100	7.84	> 100	> 100									
C[C@]12CCc3sc(Nc4ccc(O)cc4)nc3C1=CC[C@@H]1[C@@H]2CC[C@]2(C)C(=O)CC[C@@H]12	5.02	7.27	5.65	> 100	4.62	> 100	> 100	7.07		8.15	2.49	1.99	2.57	2.39	12.3	1.86	3.27	4.42	2.35
O=C(O)CC1(CC(=O)O)Nc2ccccc2SC1=O	> 100		> 100	> 100	> 100	> 100	> 100	> 100	> 100	> 100									
CCSc1nc(=[N+]2CCCC2)ss1	> 90	26.6	> 100	> 100	> 100	> 100	> 100	22.8	> 100	> 100									
Clc1nc(NCCc2ccccc2)c2ncn(-c3ccccc3)c2n1	> 100			60.7	34.6	57.9	> 100	47.3	83.4	47.8									
Cc1ccc(Nc2nc(NS(=O)(=O)c3cc(C(=O)Nc4ccc(Cl)cc4)c(Cl)cc3S)n[nH]2)cc1	> 100	> 100		> 100	> 100	> 100	> 100	> 100	> 100	> 100									
O=C1OCC/C1=C/c1ccc(N=Nc2c(O)ccc3ccccc23)cc1	54.7	57.1	47.3	55.3	40.3	41.7	44.7	53.8	36.6	49.6									
CN1CCN(c2cc(-c3cc4ccccc4o3)oc(=O)c2C#N)CC1	> 100	> 100			> 100		> 100	> 100											
Cc1ccc2c(C)c3ccc4ccccc4c3c[n+]2c1	> 100	> 100	52.7	> 87.2	33.7		> 100	64.8											
CC1OC1C(=O)C1(O)C(C)C(O)C23OC2(C(O)c2c(O)cccc2C3=O)C1O (stereo not given)	0.775	0.383	0.0971	0.532	0.714	0.732	0.519	0.73											
